Source: patent publication US8481005B2, “Methods to prevent cytotoxicity using N-acetyl-cysteine” (priority 2006, dated 2013)

Columns and labels:
[1] = tested on: HEp2 cells co-cultured with PBMCs; assay: IL-6 in co-cultures of HEMA/NAC treated HEp2 cells with healthy donor PBMCs; type: cell-based, human
Method: HEp-2 cells obtained from ATCC were cultured in DMEM supplemented with 10% FBS, 1% sodium pyruvate, 1% non essential amino acids and 1% antibiotic-antimycotic solution. […] The cells were trypsinized and washed 4 times with 1×PBS before they were co-cultured with PBMCs obtained from a healthy individual. A 4:1 ratio of effector to target cells (PBMC:HEp2) were used in these cultures. PBMCs were treated with and without IL-2 before they were co-cultured with HEp-2 cells. The supernatants were then removed from the co-cultures after an overnight incubation and analyzed using the FAST QUANT multiplex cytokine array kit to determine the levels of secreted cytokines.

[2] = tested on: human dental pulp stromal cells; assay: VEGF release from human dental pulp stromal cells (Table 4); type: cell-based
Method: (§1) The cells were then grown in media containing β-glycerophosphate and ascorbic acid until they reached confluency. […] Supernatants were measured for VEGF release.

[3] = tested on: UCLA-2 cells (a primary oral tumor line); assay: VEGF release from UCLA-2 cells (Table 4); type: cell-based
Method: as §1

THP-1 cells = tested on: THP-1 cells
Method: RAW 264.7 cells (murine macrophages) were obtained from American Type Culture Collection (ATCC) and were cultured in a 5% CO2 atmosphere in DMEM (purchased from Cellgro (Herndon, Va.)) containing 10% FCS, 1% penicillin-streptomycin, 1% sodium pyruvate, 1% non essential amino acids and 1% glutamine. THP-1 cells (human macrophages) were obtained from ATCC and were cultured under the same conditions, with RMPI 1640 containing 10% FCS, 1% penicillin-streptomycin, 1% sodium pyruvate and 1% non essential amino acids.
Dose-dependent apoptosis was measured by FITC-Annexin V/Propidium iodide kits (Miami, Fla.). Cells were plated in six-well/twelve well plates. […] Cells were washed twice with PBS and centrifuged at about 2000 rpm for about 5 minutes and resuspended in binding buffer (provided in the kit) along with FITC-Annexin V/Propidium iodide (PI) according to manufacturer's instructions. After incubating on ice (light protected) for about 15 minutes, samples were analyzed by flow cytometry. Flow cytometric analysis was performed using a flow cytometer equipped with a single 488-nm argon laser. Dead cell fragments were gated out by forward and side scatter analysis. […] Forward and side scatter were used to gate out cellular fragments.
After an overnight incubation, the levels of cell death were determined using PI staining of ethanol fixed cells. Specifically, cells were washed twice with PBS before they were treated with 70% ethanol (250 μl). Ethanol was added dropwise and then the cells were incubated on ice for 30 minutes. The cells were then washed twice with PBS and resuspended in 1 ml PBS to which PI at a final concentration of 1 mg/ml was added. The samples were then analyzed using the flow cytometer.
In FIGS. 2A and 2B, the numbers in each histogram represent the percentage of Sub Go/G1 fragmented cell populations. Ten thousand events were analyzed for each sample.

RAW 264.7 cells = assay: Morphological changes in RAW 264.7 cells (inverted microscope); type: cell-based, murine; settings: HEMA alone or with simultaneous NAC 20 mM, overnight
Source text: Peripheral Blood Mononuclear Cells

HaCaT cells = assay: PI/Annexin V cell death in HaCaT skin keratinocytes; type: cell-based; settings: HEMA 0.082M to 0.00164M alone or with NAC 20 mM, overnight
Method: Ten thousand events were analyzed for each sample. (FIG. 5)

odontoblasts = assay: ALP staining of rat odontoblasts; type: cell-based; settings: 0.00328M HEMA; overnight, 7 days or 14 days
Method: Restoring the function of cells is also very important. Therefore, ALP staining was performed as a measure of odontoblast function. […] Following this incubation, cells were washed twice with PBS and incubated with 120 mM of Tris buffer (pH=8.4) containing 0.9 mM Napthol AS-M Phosphate and 1.8 mM Fast Red TR for 30 minutes at 37° C. Afterwards the cells were washed three times with PBS and then fixed with 1 ml cold ethanol (100%) for about 30 minutes. The stained cultures were digitized using a scanner.

[4] = tested on: human dental pulp stromal cells; assay: Human dental pulp stromal cells, 4 hour treatment: VEGF ELISA and apoptosis; type: cell-based; settings: HEMA alone or with NAC 20 mM, then overnight
Method: After this treatment cells were washed and incubated overnight.

Jurkat cells = assay: Mitochondrial membrane potential in Jurkat cells (DiOC6); type: cell-based; settings: HEMA alone or with NAC 20 mM
Method: The membrane potential was assessed by staining with DiOC6 which is a positively charged dye. At low concentrations, it accumulates in mitochondria due to their large negative membrane potential. However when the membrane potential is disrupted there is less binding of this dye.

Caspase 3 [5] = assay: Caspase 3 induction in Jurkat cells; type: cell-based; settings: HEMA alone or with NAC 20 mM
caspases 9 and 3 = assay: Full length caspases 9 and 3 in HEp2 cells (Western blot); type: cell-based; settings: 0.0164M HEMA about 18 hours
Method: Protein concentrations were determined by a DC protein assay kit (Bio-Rad, Hercules, Calif.). An aliquot of total protein lysate was diluted in an equal volume of about 2% SDS sample buffer, about 6.2 mM Tris (pH about 6.8), about 2.3% SDS, about 5% mercaptoethanol, about 10% glycerol, and about 0.02% bromophenol blue and boiled for about 10 minutes. The cell lysates (40 μg) were then electrophoresed on 12% SDS-PAGE gels and were subjected to Western blot analysis. Levels of β-tubulin and actin were used to normalize the protein expression. Relative concentrations were assessed by densitometric analysis of digitized autographic images. The anti-actin and anti-β-tubulin monoclonal antibodies were purchased from Santa Cruz Biotechnology (Santa Cruz, Calif.) and from Calbiochem (San Francisco, Calif.) respectively. The polyclonal antibodies anti-caspase 3 and anti-caspase 9, were obtained from Cell Signaling (San Diego, Calif.). […] Decreased Processing and Cleavage of Caspase 3 in the Presence of NAC

Caspase 3 [6] = assay: Full length caspase 3 in keratinocytes; type: cell-based; settings: about 8 hours, NAC 20 mM
Source text: Roles of NFkB and GAPDH in HEMA-Mediated Cell Death

[7] = tested on: human mesenchymal stem cells; assay: VEGF secretion of human mesenchymal stem cells (ELISA); type: cell-based; settings: HEMA alone or with NAC 20 mM, 4 hours, then overnight
mesenchymal stem cells = assay: Cell death of mesenchymal stem cells (FITC-Annexin V and PI); type: cell-based
Source text: Treated mesenchymal stem cells were then removed and cell death determined using FITC-Annexin V and PI staining.

osteoblasts = assay: Cell death of osteoblasts differentiated from mesenchymal stem cells; type: cell-based
Method: In a subsequent study, mesenchymal stem cells were differentiated to osteoblasts in differentiation media. […] Treated osteoblasts were then removed and cell death was determined using FITC-Annexin V and PI staining.

[8] = HEMA 0.00164M, alone or with NAC
[9] = HEMA 0.0082M, alone or with NAC
[10] = HEMA 0.0164M, alone or with NAC

## C=C(C)C(=O)OCCO [HEMA, hydroxyethyl methacrylate]
[1]; HEp2 +0.00082M HEMA, −/+NAC, PBMC +IL-2
  IL-6: 371 pg/mL
[1]; HEp2 +0.00082M HEMA, −/+NAC, PBMC −IL-2
  IL-6: 204 pg/mL
[1]; HEp2 +0.00164M HEMA, −/+NAC, PBMC +IL-2
  IL-6: 264 pg/mL
[1]; HEp2 +0.00164M HEMA, −/+NAC, PBMC −IL-2
  IL-6: 208 pg/mL
[1]; HEp2 +0.0082M HEMA, −/+NAC, PBMC +IL-2
  IL-6: 243 pg/mL
[1]; HEp2 +0.0082M HEMA, −/+NAC, PBMC −IL-2
  IL-6: 192 pg/mL
[1]; HEp2 +0.0164M HEMA, −/+NAC, PBMC +IL-2
  IL-6: 262 pg/mL
[1]; HEp2 +0.0164M HEMA, −/+NAC, PBMC −IL-2
  IL-6: 191 pg/mL
[2]; [8]
  Human dental pulp stromal cells (VEFG secretion): 163.7 pg/mL
[2]; [9]
  Human dental pulp stromal cells (VEFG secretion): 125.1 pg/mL
[2]; [10]
  Human dental pulp stromal cells (VEFG secretion): 113.4 pg/mL
[3]; [8]
  UCLA-2 (VEFG secretion): 3258.8 pg/mL
[3]; [9]
  UCLA-2 (VEFG secretion): 319.6 pg/mL
[3]; [10]
  UCLA-2 (VEFG secretion): 180.2 pg/mL
THP-1 cells; HEMA about 18 hours
  HEMA-mediated cell death and cytotoxicity (FITC-Annexin V/PI): detected at millimole to micromole concentrations
RAW 264.7 cells
  morphological changes (decreased size, blebbing, apoptotic bodies): morphological changes indicative of apoptosis
HaCaT cells
  apoptotic cell death (PI/Annexin V): dose dependent induction of apoptotic cell death
odontoblasts
  ALP staining (odontoblast function): significantly less staining
[4]
  VEGF secretion: large effects
  cell death: large effects
Jurkat cells
  mitochondrial membrane potential (Δψm): decrease in mitochondrial membrane potential
Caspase 3 [5]
  Caspase 3 induction: increase in Caspase 3 induction
Caspases 9 and 3
  full length caspases 9 and 3 levels: diminishes full length caspases 9 and 3 levels
Caspase 3 [6]
  levels of full length caspase 3 (processing of caspase 3): decrease in the levels of full length caspase 3
[7]
  VEGF secretion: significantly decreased secretion of VEGF
Mesenchymal stem cells; mesenchymal stem cells, 0.0164M HEMA
  cells that underwent cell death: 86.1%
osteoblasts; osteoblasts, 0.0164M HEMA
  cells that underwent cell death: 49.7%

## CC(=O)N[C@@H](CS)C(=O)O [NAC, N-acetyl-cysteine]
[1]; HEp2 −HEMA (+NAC), PBMC +IL-2
  IL-6: 1835 pg/mL
[1]; HEp2 −HEMA (+NAC), PBMC −IL-2
  IL-6: 880 pg/mL
[2]; NAC alone, no HEMA
  Human dental pulp stromal cells (VEFG secretion): 1804.1 pg/mL
[3]; NAC alone, no HEMA
  UCLA-2 (VEFG secretion): 2831.9 pg/mL
THP-1 cells; NAC 20 mM pretreatment about 8 hours or simultaneous, overnight
  inhibition of HEMA-mediated cell death (Sub Go/G1, PI staining): inhibited HEMA-mediated cell death
RAW 264.7 cells
  morphological changes (decreased size, blebbing, apoptotic bodies): inhibited the occurrence of these morphological changes
HaCaT cells
  apoptotic cell death (PI/Annexin V): considerably decreased the percentages of cells positive for PI/Annexin V staining
odontoblasts
  ALP staining (odontoblast function): positive for ALP staining
[4]
  VEGF secretion: strongly if not totally ameliorated
  cell death: strongly if not totally ameliorated
Jurkat cells
  mitochondrial membrane potential (Δψm): restored mitochondrial membrane potential
Caspase 3 [5]
  Caspase 3 induction: decreased the induction of caspase 3 expression
Caspases 9 and 3
  full length caspases 9 and 3 levels: inhibits HEMA-mediated decrease in caspases 9 and 3
Caspase 3 [6]
  levels of full length caspase 3 (processing of caspase 3): this decrease is inhibited
[7]
  VEGF secretion: prevented the HEMA-mediated decrease
Mesenchymal stem cells; NAC 20 mM, 18 hours
  prevention of HEMA-mediated cell death: can prevent HEMA-mediated cell death
osteoblasts; NAC 20 mM, 18 hours
  prevention of HEMA-mediated cell death: can prevent HEMA-mediated cell death
